Experimental data from ChEMBL document CHEMBL1126360, “-Amino acid analogues as mechanism-based inactivators of -aminobutyric acid aminotransferase” (Bioorg Med Chem Lett, 1992).

Tests used:
[1] = biological target: 4-aminobutyrate aminotransferase, mitochondrial (Sus scrofa, UniProt P80147); experiment: Apparent dissociation constants for inactivation of Gamma-amino-N-butyrate transaminase
[2] = biological target: 4-aminobutyrate aminotransferase, mitochondrial (Sus scrofa) (UniProt P80147); experiment: Rate constants for inactivation at infinite concentration for inactivation of Gamma-amino-N-butyrate transaminase
Sequence of 4-aminobutyrate aminotransferase, mitochondrial (Sus scrofa) (P80147 whole entry): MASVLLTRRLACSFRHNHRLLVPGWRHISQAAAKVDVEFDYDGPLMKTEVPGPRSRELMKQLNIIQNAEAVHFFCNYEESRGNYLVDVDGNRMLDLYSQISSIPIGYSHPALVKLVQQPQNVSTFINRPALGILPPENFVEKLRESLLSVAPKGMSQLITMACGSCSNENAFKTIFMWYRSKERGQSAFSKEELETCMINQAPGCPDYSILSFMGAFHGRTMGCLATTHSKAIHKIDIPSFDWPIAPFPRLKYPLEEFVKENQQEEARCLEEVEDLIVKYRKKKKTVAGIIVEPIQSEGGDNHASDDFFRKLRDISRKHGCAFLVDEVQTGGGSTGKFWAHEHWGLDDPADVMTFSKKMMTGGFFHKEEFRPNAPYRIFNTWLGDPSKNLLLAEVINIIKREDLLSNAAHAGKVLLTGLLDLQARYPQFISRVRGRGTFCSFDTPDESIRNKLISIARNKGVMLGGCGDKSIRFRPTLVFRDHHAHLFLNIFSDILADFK

Sequence of 4-aminobutyrate aminotransferase, mitochondrial (P80147 whole entry): as above

SMILES | Ki [1] | K inact [2]
C[C@](N)(CCl)C(=O)O | 6.5 mM | 0.00093 min⁻¹
N[C@@H](COS(=O)(=O)O)C(=O)O | 2.4 mM | 0.0055 min⁻¹
C=C[C@](C)(N)C(=O)O | 12.8 mM | 8.5e-05 min⁻¹
C[C@](N)(CF)C(=O)O | 6.8 mM | 0.00059 min⁻¹
C[C@](N)(COP(=O)(O)O)C(=O)O | 5.7 mM | 0.0014 min⁻¹
